# Publication PMC7115580 (European Journal of Medicinal Chemistry, 2017)
# Target: S31N mutant M2 channel (Influenza A virus, UniProt P0DOF5, S31N)
# Assay type: biochemical
row,Structure (SMILES),Inhibition of S31N mutant M2 channel
1,"CC1(C)N=C(N)N=C(N)N1c1ccc(Cl)cc1 [Compound 1, cycloguanil, reference compound]",neither of the three compounds significantly inhibited
2,CC1(C)N=C(N)N=C(N)N1c1cccc(C(F)(F)F)c1 [Compound 14],neither of the three compounds significantly inhibited
3,CC1(C)N=C(N)N=C(N)N1c1ccc(Cl)c(Cl)c1 [Compound 16],neither of the three compounds significantly inhibited
